# What was measured:
# Conditions in all cases: 48 h
# [1] = test system: NOMO1; assay: cell viability relative to DMSO control; higher = less cytotoxic
# How it was run: (§1)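 Viability was expressed as a per-plate percentage of DMSO wells, with cell-free wells as background. Leukemia cells (NOMO1 or SEM at 500 cells/well, P12-Ichikawa at 1000 cells/well) were adapted for at least four passages in each medium and seeded in 1536-well plates (5 μl). Library compounds in DMSO were pin-dosed over an 11-point threefold series from 47 μM to 0.79 nM, and CellTiter-Glo One luminescence was read after 48 h at 37°C.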
# [2] = test system: P12-Ichikawa; assay: as above
# How it was run: as §1
# [3] = test system: SEM cells; assay: as above
# How it was run: as §1
# [4] = test system: NOMO1; assay: AUC of viability dose-response curve (% viability x log10 dose units); higher = less sensitive
# How it was run: (§2)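 Viability of medium-adapted leukemia cells was measured by CellTiter-Glo One luminescence after 48 h at 37°C with library compounds in DMSO. Doses were 11 threefold steps from 47 μM to 0.79 nM, in 1536-well plates at 500 or 1000 cells/well. Signals were normalised per plate to DMSO and cell-free wells and fitted with a four-parameter log-logistic model on log10 dose. Area under the curve was integrated by trapezoidal rule, with curves exceeding full viability scaled and failed quality-control curves removed.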
# [5] = test system: P12-Ichikawa; assay: as above
# How it was run: as §2
# [6] = test system: SEM cells; assay: as above
# How it was run: as §2
# [7] = HPLM + 10% dialyzed FBS, 0.000781 µM
# [8] = HPLM + 10% dialyzed FBS, 0.00234 µM
# [9] = HPLM + 10% dialyzed FBS, 0.00702 µM
# [10] = HPLM + 10% dialyzed FBS, 0.0211 µM
# [11] = HPLM + 10% dialyzed FBS, 0.0632 µM
# [12] = HPLM + 10% dialyzed FBS, 0.19 µM
# [13] = HPLM + 10% dialyzed FBS, 0.569 µM
# [14] = HPLM + 10% dialyzed FBS, 1.71 µM
# [15] = HPLM + 10% dialyzed FBS, 5.12 µM
# [16] = HPLM + 10% dialyzed FBS, 15.4 µM
# [17] = HPLM + 10% dialyzed FBS, 46.1 µM
# [18] = RPMI 5 mM glucose + 10% FBS, 0.000781 µM
# [19] = RPMI 5 mM glucose + 10% FBS, 0.00234 µM
# [20] = RPMI 5 mM glucose + 10% FBS, 0.00702 µM
# [21] = RPMI 5 mM glucose + 10% FBS, 0.0211 µM
# [22] = RPMI 5 mM glucose + 10% FBS, 0.0632 µM
# [23] = RPMI 5 mM glucose + 10% FBS, 0.19 µM
# [24] = RPMI 5 mM glucose + 10% FBS, 0.569 µM
# [25] = RPMI 5 mM glucose + 10% FBS, 1.71 µM
# [26] = RPMI 5 mM glucose + 10% FBS, 5.12 µM
# [27] = RPMI 5 mM glucose + 10% FBS, 15.4 µM
# [28] = RPMI 5 mM glucose + 10% FBS, 46.1 µM
# [29] = RPMI 5 mM glucose + 10% dialyzed FBS, 0.000781 µM
# [30] = RPMI 5 mM glucose + 10% dialyzed FBS, 0.00234 µM
# [31] = RPMI 5 mM glucose + 10% dialyzed FBS, 0.00702 µM
# [32] = RPMI 5 mM glucose + 10% dialyzed FBS, 0.0211 µM
# [33] = RPMI 5 mM glucose + 10% dialyzed FBS, 0.0632 µM
# [34] = RPMI 5 mM glucose + 10% dialyzed FBS, 0.19 µM
# [35] = RPMI 5 mM glucose + 10% dialyzed FBS, 0.569 µM
# [36] = RPMI 5 mM glucose + 10% dialyzed FBS, 1.71 µM
# [37] = RPMI 5 mM glucose + 10% dialyzed FBS, 5.12 µM
# [38] = RPMI 5 mM glucose + 10% dialyzed FBS, 15.4 µM
# [39] = RPMI 5 mM glucose + 10% dialyzed FBS, 46.1 µM
# [40] = RPMI 5 mM glucose + 10% dialyzed FBS
smiles,measurement,setting,value
O=C(O)C(=O)c1cn(Cc2ccccc2)c2ccc(-c3ccc(OC(F)(F)F)cc3)cc12,cell viability,[1]; [7],101%
same,cell viability,[1]; [8],102%
same,cell viability,[1]; [9],105%
same,cell viability,[1]; [10],107%
same,cell viability,[1]; [11],108%
same,cell viability,[1]; [12],108%
same,cell viability,[1]; [13],110%
same,cell viability,[1]; [14],81.4%
same,cell viability,[1]; [15],91.3%
same,cell viability,[1]; [16],90.6%
same,cell viability,[1]; [17],88.5%
same,cell viability,[1]; [18],93.5%
same,cell viability,[1]; [19],94.8%
same,cell viability,[1]; [20],90.3%
same,cell viability,[1]; [21],109%
same,cell viability,[1]; [22],96%
same,cell viability,[1]; [23],100%
same,cell viability,[1]; [24],104%
same,cell viability,[1]; [25],89.6%
same,cell viability,[1]; [26],97.8%
same,cell viability,[1]; [27],96.1%
same,cell viability,[1]; [28],89.5%
same,cell viability,[1]; [29],106%
same,cell viability,[1]; [30],96.8%
same,cell viability,[1]; [31],104%
same,cell viability,[1]; [32],119%
same,cell viability,[1]; [33],97.8%
same,cell viability,[1]; [34],95.3%
same,cell viability,[1]; [35],100%
same,cell viability,[1]; [36],85.2%
same,cell viability,[1]; [37],93%
same,cell viability,[1]; [38],98.4%
same,cell viability,[1]; [39],80.8%
same,cell viability,[2]; [7],106%
same,cell viability,[2]; [8],105%
same,cell viability,[2]; [9],109%
same,cell viability,[2]; [10],110%
same,cell viability,[2]; [11],111%
same,cell viability,[2]; [12],109%
same,cell viability,[2]; [13],97.6%
same,cell viability,[2]; [14],103%
same,cell viability,[2]; [15],98.2%
same,cell viability,[2]; [16],95%
same,cell viability,[2]; [17],93.4%
same,cell viability,[2]; [18],99.9%
same,cell viability,[2]; [19],109%
same,cell viability,[2]; [20],102%
same,cell viability,[2]; [21],102%
same,cell viability,[2]; [22],100%
same,cell viability,[2]; [23],99.9%
same,cell viability,[2]; [24],109%
same,cell viability,[2]; [25],103%
same,cell viability,[2]; [26],102%
same,cell viability,[2]; [27],98.4%
same,cell viability,[2]; [28],87%
same,cell viability,[2]; [29],95.9%
same,cell viability,[2]; [30],103%
same,cell viability,[2]; [31],98.7%
same,cell viability,[2]; [32],101%
same,cell viability,[2]; [33],101%
same,cell viability,[2]; [34],97.2%
same,cell viability,[2]; [35],94.4%
same,cell viability,[2]; [36],91.6%
same,cell viability,[2]; [37],102%
same,cell viability,[2]; [38],99.6%
same,cell viability,[2]; [39],90.2%
same,cell viability,[3]; [7],102%
same,cell viability,[3]; [8],126%
same,cell viability,[3]; [9],116%
same,cell viability,[3]; [10],117%
same,cell viability,[3]; [11],107%
same,cell viability,[3]; [12],108%
same,cell viability,[3]; [13],109%
same,cell viability,[3]; [14],110%
same,cell viability,[3]; [15],122%
same,cell viability,[3]; [16],46.2%
same,cell viability,[3]; [17],97.5%
same,cell viability,[3]; [18],119%
same,cell viability,[3]; [19],106%
same,cell viability,[3]; [20],104%
same,cell viability,[3]; [21],103%
same,cell viability,[3]; [22],98.7%
same,cell viability,[3]; [23],102%
same,cell viability,[3]; [24],95.2%
same,cell viability,[3]; [25],108%
same,cell viability,[3]; [26],97.3%
same,cell viability,[3]; [27],45.1%
same,cell viability,[3]; [28],88.1%
same,cell viability,[3]; [29],110%
same,cell viability,[3]; [30],94.6%
same,cell viability,[3]; [31],102%
same,cell viability,[3]; [32],99%
same,cell viability,[3]; [33],98.6%
same,cell viability,[3]; [34],84.2%
same,cell viability,[3]; [35],116%
same,cell viability,[3]; [36],89.1%
same,cell viability,[3]; [37],101%
same,cell viability,[3]; [38],30.4%
same,cell viability,[3]; [39],84.2%
same,AUC of viability dose-response curve,[4]; HPLM + 10% dialyzed FBS,449
same,AUC of viability dose-response curve,[4]; RPMI 5 mM glucose + 10% FBS,460
same,AUC of viability dose-response curve,[4]; [40],443
same,AUC of viability dose-response curve,[5]; HPLM + 10% dialyzed FBS,456
same,AUC of viability dose-response curve,[5]; RPMI 5 mM glucose + 10% FBS,471
same,AUC of viability dose-response curve,[5]; [40],466
same,AUC of viability dose-response curve,[6]; HPLM + 10% dialyzed FBS,451
same,AUC of viability dose-response curve,[6]; RPMI 5 mM glucose + 10% FBS,448
same,AUC of viability dose-response curve,[6]; [40],444

# From the supplement of paper PMC11451515
